Measured values: PMC6325219, “Preclinical Characterization of NVR 3-778, a First-in-Class Capsid Assembly Modulator against Hepatitis B Virus” (Antimicrobial Agents and Chemotherapy, 2018)
Where “and” joins values, the source holds several entries; their conditions need not be identical. Identical values can stand only once. Counter-ions that a name gives are not always drawn. Marks after values point to notes of the source that are not given here.

Tests used:
[1] = tested on: HBV rtL180M/M204V variant; assay: microbe, parasite or virus in culture; format: cell-based, hepatitis B virus; details: for EC50 fold change, rtL180M/M204V: ratio of mean EC50 against variant over WT HBV, HepG2 cells
Excerpt: (§1) Plasmids containing HBV DNA with rtN236T, rtA181V, rtA181V/N236T, and rtL180M/M204V/N236T were generated using the GT B WT or rtL180M/M204V DNA-containing plasmids and site-directed mutagenesis (Agilent Technologies). A panel of nine different HBV core variants (cW102G, cW102R, cI105V, cI105L, cI105T, cT109S, cT109M, cT109I, and cY118F) was generated, also using the GT B WT DNA-containing plasmid and site-directed mutagenesis. The full-length genome from all plasmids was sequenced to confirm that only the intended nucleotide change(s) was present. Finally, HBV sequences from genotypes A (GenBank accession number AF305422), C (GenBank accession number AB033550), D (GenBank accession number V01460), E (GenBank accession number AB274971), F (GenBank accession number AB036912), G (GenBank accession number AF160501), and H (GenBank accession number AB375159) were gene synthesized as 1.1 times the genome length together with part of the CMV promoter at the 5′ end. The gene-synthesized piece was validated by sequencing and subcloned into the pCMV-HBV plasmid using the restriction sites SalI and NdeI (Genewiz, USA).
(§2) HepG2 cells were seeded in 96-well plates at a density of 20,000 cells/well and allowed to attach overnight at 37°C in 5% CO2. Cells were cotransfected with the HBV plasmids (100 ng/well) and a Gaussia expression plasmid (10 ng/well) (Thermo Scientific) using the Lipofectamine LTX Plus transfection reagent (Life Technologies). Transfection mixtures were removed after overnight incubation, and cells were treated with serially diluted NVR 3-778 at a final dimethyl sulfoxide (DMSO) concentration of 0.5%. After 3 days of incubation with the compound, the supernatants were collected and secreted Gaussia luciferase was measured using a Gaussia Flash luciferase assay kit (Thermo Scientific). Cells were lysed with 0.33% NP-40 (Thermo Scientific), and the cytoplasmic fractions were treated with 2 units of Turbo DNase (Invitrogen) and 10 units of S7 nuclease (Roche) in CutSmart buffer (New England Biolabs) containing 25 µM CaCl2 (G-Biosciences) at 37°C for 60 min, followed by inactivation of the enzymes at 75°C for 15 min. Samples were diluted into lysis buffer (Affymetrix) containing 2.5 µg proteinase K (Affymetrix) at 50°C for 40 min. Intracellular encapsidated HBV DNA was denatured for 30 min at 25°C in 0.2 M NaOH (Sigma) and incubated with HBV DNA probes designed to hybridize to the minus-strand HBV DNA (Affymetrix). The denatured DNA was subsequently detected using a QuantiGene assay kit, according to the branched DNA (bDNA) assay recommended by the manufacturer (Affymetrix).
(§3) To determine percent inhibition, the mean background signal from wells containing only culture medium was subtracted from the signal for all other samples, and percent inhibition at each compound concentration was calculated by normalization to the signals for HepG2.2.15 cells treated with 0.5% DMSO. […] Both CalcuSyn and MacSynergy II (Ann Arbor, MI) software were used to evaluate the effect of compound combinations ([27]). After data analysis at the 95% confidence level, values of synergy or antagonism of <25 µM^2% were defined as insignificant, those between 25 and 50 µM^2% were defined as minor, those between 50 and 100 µM^2% were defined as moderate, and those of >100 µM^2% were defined as strong.

[2] = tested on: HBV rtL180M/M204V/N236T variant; assay: microbe, parasite or virus in culture; format: cell-based, hepatitis B virus; details: ratio of mean EC50 against variant over WT HBV, HepG2 cells
Excerpt: as §1, §2, §3

HBV rtA181V variant = assay: microbe, parasite or virus in culture; format: cell-based, hepatitis B virus; details: for EC50 fold change, rtA181V: ratio of mean EC50 against variant over WT HBV, HepG2 cells
Excerpt: as §1, §2, §3

HBV GT B (wild-type HBV) [3] = assay: Transient-transfection antiviral study in HepG2 cells, GT B (wild-type HBV); format: cell-based, hepatitis B virus; details: Hepatitis B virus, HepG2, read-out: WT EC50
Experimental: (§5) Cells were cotransfected with the HBV plasmids (100 ng/well) and a Gaussia expression plasmid (10 ng/well) (Thermo Scientific) using the Lipofectamine LTX Plus transfection reagent (Life Technologies). Transfection mixtures were removed after overnight incubation, and cells were treated with serially diluted NVR 3-778 at a final dimethyl sulfoxide (DMSO) concentration of 0.5%. After 3 days of incubation with the compound, the supernatants were collected and secreted Gaussia luciferase was measured using a Gaussia Flash luciferase assay kit (Thermo Scientific). […] Samples were diluted into lysis buffer (Affymetrix) containing 2.5 µg proteinase K (Affymetrix) at 50°C for 40 min. Intracellular encapsidated HBV DNA was denatured for 30 min at 25°C in 0.2 M NaOH (Sigma) and incubated with HBV DNA probes designed to hybridize to the minus-strand HBV DNA (Affymetrix). The denatured DNA was subsequently detected using a QuantiGene assay kit, according to the branched DNA (bDNA) assay recommended by the manufacturer (Affymetrix).

[4] = tested on: HBV rtA181V/N236T variant; format: cell-based, hepatitis B virus; details: ratio of mean EC50 against variant over WT HBV, HepG2 cells
Excerpt: as §1, §2, §3

HBV rtN236T variant = format: cell-based, hepatitis B virus; details: ratio of mean EC50 against variant over WT HBV, HepG2 cells
Excerpt: as §1, §2, §3

HBV [5] = assay: Combination study of NVR 3-778 with nucleos(t)ide analogs in HepG2.2.15 cells (MacSynergy II, CalcuSyn); format: cell-based, hepatitis B virus (GT D); details: in combination with NVR 3-778; for Antagonism / Synergy: HepG2.2.15 cells, 6 days, MacSynergy II, 95% confidence; for CalcuSyn-predicted effect: based on overall CI; for MacSynergy-predicted effect: volumes <25 µM^2% defined as insignificant
Experimental: The effect of the compound combinations on cell viability was evaluated by measuring the intracellular ATP levels of HepG2.2.15 cells.
(§4) HepG2.2.15 cells were seeded in 96-well plates at a density of 40,000 cells/well and incubated with serially diluted compounds at a final DMSO concentration of 0.5%. In combination studies, cells were treated with compounds either alone or in combination after combining the compounds in a checkerboard format. In studies examining the effect of human serum, serially diluted NVR 3-778 was added into cell culture medium containing 0% to 40% human serum (BioreclamationIVT). Cells were incubated with the compounds for 3 days, after which the medium was removed, fresh medium containing the compounds was added to the cells, and the cells were incubated for another 3 days prior to harvesting of the supernatants or cells for antiviral assays. To quantify intracellular encapsidated rcDNA or encapsidated pgRNA, cells were first solubilized using lysis buffer containing 1% NP-40 and 10 mM CaCl2. The cytoplasmic fraction was then treated with S7 nuclease (6 units) to remove nonencapsidated nucleic acids, after which the S7 nuclease was inactivated by the addition of EDTA (0.5 M). To quantify extracellular HBV DNA or HBV RNA, supernatants from HepG2.2.15 cells were treated with Turbo DNase at 37°C for 60 min, followed by inactivation of DNase at 75°C for 15 min. The levels of HBV DNA were determined by a bDNA assay as described above (Affymetrix). Supernatants or cell lysates containing HBV RNA were treated with proteinase K (2.5 µg) at 50°C for 40 min, transferred to a capture plate containing HBV RNA probe sets, and hybridized overnight at 55°C. Captured HBV RNA was measured by the addition of a chemiluminescent substrate using a QuantiGene assay (Affymetrix). To determine the cytotoxicity effect of the compounds on proliferating cells, HepG2.2.15 cells were seeded in 96-well plates at a density of 10,000 cells/well and incubated with serially diluted compounds at a final DMSO concentration of 0.5% for 3 days, after which the medium was removed, fresh medium containing the compounds was added to the cells, and the cells were incubated for another 3 days. At day 6, the CellTiter-Glo reagent was added to the cells and viability was determined according to the manufacturer’s protocol (Promega). Luminescence signals were measured at 0.2 s using a Victor X4 multimode plate reader (PerkinElmer).
as §3

HBV T109M core variant = tested on: HBV T109M core variant; set-up: method as in doi:10.1016/S0168-8278(18)30439-2; details: phase 1b; cited from earlier work
[6] = tested on: HBV core protein variant I105T; set-up: method as in PMID 26598693; details: previously published results; cited from earlier work
[7] = tested on: HBV core protein variant T109I; set-up: method as in PMID 26598693; details: previously published results; cited from earlier work
HBV GT B (wild-type HBV) [8] = tested on: HBV GT B (wild-type HBV); set-up: method as in PMID 26598693; details: reference; previously published results; cited from earlier work
[9] = tested on: HBV core protein variant I105V; set-up: method as in PMID 26598693; details: previously published results; cited from earlier work
[10] = tested on: HBV core protein variant Y118F; set-up: method as in PMID 26598693; details: previously published results; cited from earlier work
[11] = tested on: HBV core protein variant T109S; set-up: method as in PMID 26598693; details: previously published results; cited from earlier work
[12] = tested on: HBV core protein variant T109M; set-up: method as in PMID 26598693; details: previously published results; cited from earlier work
[13] = tested on: HBV core protein variant I105L; set-up: method as in PMID 26598693; details: previously published results; cited from earlier work
HBV [14] = assay: Antiviral studies using HepG2.2.15 cells (HBV DNA and HBV RNA readouts); format: cell-based, hepatitis B virus (GT D); details: HepG2.2.15 cells
Experimental: as §4, with “In” for “HepG2.2.15 cells were seeded in 96-well plates at a density of 40,000 cells/well and incubated with serially diluted compounds at a final DMSO concentration of 0.5%. In”, “To quantify extracellular HBV DNA or HBV RNA, supernatants from HepG2.2.15 cells were treated with Turbo DNase at 37°C for 60 min, followed by inactivation of DNase at 75°C for 15 min.” left out, “To determine the cytotoxicity effect of the compounds on proliferating cells, HepG2.2.15 cells were seeded in 96-well plates at a density of 10,000 cells/well and incubated with serially diluted compounds at a final DMSO concentration of 0.5% for 3 days, after which the medium was removed, fresh medium containing the compounds was added to the cells, and the cells were incubated for another 3 days.” left out

[15] = tested on: nucleoside-resistant HBV variants; assay: Transient-transfection antiviral study, panel of nucleoside-resistant HBV variants (summary statements); format: cell-based, hepatitis B virus; details: versus WT HBV
Experimental: as §5

SMILES	EC50 fold change, rtL180M/M204V [1]	EC50 fold change, rtL180M/M204V/N236T [2]	EC50 fold change, rtA181V (HBV rtA181V variant)	EC50 (HBV GT B (wild-type HBV) [3])	EC50 fold change, rtA181V/N236T [4]	EC50 fold change, rtN236T (HBV rtN236T variant)	Antagonism (HBV [5])	Synergy (HBV [5])	CalcuSyn-predicted effect (HBV [5])	MacSynergy-predicted effect (HBV [5])	EC50 FC, I105T [6]	EC50 FC, T109I [7]	EC50 FC, wild type (HBV GT B (wild-type HBV) [8])	EC50 FC, I105V [9]	EC50 FC, Y118F [10]	EC50 FC, T109S [11]	EC50 FC, T109M [12]	EC50 FC, I105L [13]	also measured
C=C1[C@H](CO)[C@@H](O)C[C@@H]1n1cnc2c(=O)[nH]c(N)nc21 [ETV, entecavir]	31 fold and 31 ± 16^a fold	14 fold and 14 ± 4^a fold	2.2 ± 0.5^a fold	1.4 ± 0.4 nM	1.8 ± 0.6^d fold	0.67 ± 0.22^d fold	−16.5 μM^2%	1.0 μM^2%	Slight to moderate synergy	Additive	–	–	–	–	–	–	–	–	–
O=C(NCc1cnc(C(F)(F)F)s1)c1ccc2c(c1)NC(=O)c1ccccc1S2(=O)=O [ABI-H0731]	–	–	–	–	–	–	–	–	–	–	–	–	–	–	–	–	–	–	Antiviral response in a patient with a preexisting T109M core variant (HBV T109M core variant): reduced antiviral response
COC(=O)C1=C(C)NC(c2ncc(F)cc2F)=N[C@H]1c1ccc(F)cc1Cl [Bay 41-4109]	–	–	–	–	–	–	–	–	–	–	1.5 fold	21 fold	1 fold	1.3 fold	8.2 fold	0.40 fold	3.7 fold	0.44 fold	–
C[C@H](Cn1cnc2c(N)ncnc21)OCP(=O)(O)O [TFV, tenofovir]	–	–	–	–	–	–	−7.3 μM^2%	18.5 μM^2%	Slight to moderate synergy	Additive	–	–	–	–	–	–	–	–	Effect on HBV DNA production (HBV [14]): inhibited HBV DNA production; Effect on intracellular encapsidated HBV RNA and secreted HBV RNA (HBV [14]; dose-dependent): increased the levels
CC(C)OC(=O)OCOP(=O)(CO[C@H](C)Cn1cnc2c(N)ncnc21)OCOC(=O)OC(C)C [TDF, Tenofovir disoproxil fumarate]	1.1 ± 0.3^d fold	2.9 ± 1.5^b fold	1.4 ± 0.05^d fold	32 ± 15 nM	2.8 ± 1.4^b fold	2.2 ± 1.0^b fold	–	–	–	–	–	–	–	–	–	–	–	–	EC50 ([1]; Hepatitis B virus, HepG2, read-out: EC50 (mean), rtL180M/M204V variant): 34 nM; EC50 (HBV rtA181V variant; Hepatitis B virus, HepG2, read-out: EC50 (mean), rtA181V variant): 43 nM; Reduction of antiviral activity against the variants that contained rtN236T [15]: about 3 fold
COC(=O)C1=C(CN2CCOCC2)NC(c2nccs2)=N[C@@H]1c1ccc(F)cc1Br [NVR-010-001-E2]	–	–	–	–	–	–	–	–	–	–	1.2 fold	9.2 fold	1 fold	1.3 fold	3.7 fold	0.43 fold	2.8 fold	0.49 fold	–
